# Patent publication US20250163061A1 (Bala Therapeutics, Inc., priority 2021, published 2025)
# Experiments:
# Type in all cases: cell-based
# MV4-11 = MV4-11 cellular growth inhibition assay (CellTiter-Glo); conditions: Homo sapiens, 168 h, MV4-11 cells, 7 days of incubation
# Procedure: (§1) HEK293 (Institute of Cytology Russian Academy of Science), MV4-11 (ATCC, CRL-9591), MOLM-13 (AcceGen, ABC-TC517S) were seeded at a density of 500 cells per well (HEK293) and 2000 cells per well (MV4-11, MOLM-13) in a 384-well clear bottom plate (Greiner Cat #781090) in 45 μl total volume of DMEM (PanEco, Cat #C420, Russia) or RPMI (PanEco, Cat #C330, Russia) with 10% FBS (HyClone Cat #SV30160.03). HEK293 were allowed to adhere overnight at 37° C., 5% CO2. 500× compounds solutions in DMSO (Sigma Cat #D2650) were prepared into Cmpnds plate (Diamond Well Plate, Axigen, Cat #P-384-120SQ-C-S) and DMSO only control was included. 1 μl of 500× compounds (Cmpnds plate) was added to 49 μl of culture medium into Dilution plate (Diamond Well Plate, Axigen, Cat #P-384-120SQ-C-S), mixed and then 5 μl of 10× compounds solutions were transferred to cells followed by centrifugation at 100 g for 1 min. Final DMSO concentration was 0.2%. After 3 days of incubation, 10 μl of 1× compounds were added to cells. After 7 days of incubation, 12 μl of CellTiter-Glo (Promega, CAT #G7572) were added to the cells, plate was centrifuged at 100 g for 1 min and luminescence signal was measured using Microplate Reader (CLARIOStar).
# [1] = HEK293 cellular growth inhibition assay (CellTiter-Glo); conditions: human, HEK293 cells, 7 days of incubation
# Procedure: as §1
# MOLM-13 = MOLM-13 cellular growth inhibition assay (CellTiter-Glo); conditions: Homo sapiens, 168 h, MOLM-13 cells, 7 days of incubation
# Procedure: as §1
smiles,measurement,setting,value
"Cc1c(CN2CCC3(CC2)CN(c2ncnc4ccc(CC(F)(F)F)c(F)c24)C3)ccc2c1cc(C#N)n2CC1CNC(=O)CO1 (stereo not drawn) [Compound 12, 5-[[2-[5-Fluoro-6-(2,2,2-trifluoroethyl)quinazolin-4-yl]-2,7-diazaspiro[3.5]nonan-7-yl]methyl]-4-methyl-1-[(5-oxomorpholin-2-yl)methyl]indole-2-carbonitrile]",CC50,MV4-11,100 to 500 nM
same,CC50 at 7 days,[1],≤ 2000 nM
same,CC50,MOLM-13,500 to 1000 nM
"Cc1c(CN2CCC3(CC2)CN(c2ncnc4ccc(CC(F)(F)F)cc24)C3)ccc2c1cc(C#N)n2CCCCN1CCN(S(C)(=O)=O)CC1 [Compound 44, 4-Methyl-1-{4-[4-(methylsulfonyl)piperazin-1-yl]butyl}-5-({2-[6-(2,2,2-trifluoroethyl)quinazolin-4-yl]-2,7-diazaspiro[3.5]non-7-yl}methyl)-1H-indole-2-carbonitrile]",CC50,MV4-11,1000 to 5000 nM
same,CC50 at 7 days,[1],2000 to 5000 nM
same,CC50,MOLM-13,> 5000 nM
"Cc1c(CN2CCC3(CC2)CN(c2ncnc4ccc(CC(F)(F)F)cc24)C3)ccc2c1cc(C#N)n2CC1CNC(=O)C(C)O1 (stereo not drawn) [Compound 7, 4-Methyl-1-[(6-methyl-5-oxo-morpholin-2-yl)methyl]-5-[[2-[6-(2,2,2-trifluoroethyl)quinazolin-4-yl]-2,7-diazaspiro[3.5]nonan-7-yl]methyl]indole-2-carbonitrile]",CC50,MV4-11,≤ 100 nM
same,CC50 at 7 days,[1],2000 to 5000 nM
same,CC50,MOLM-13,100 to 500 nM
"CCS(=O)(=O)N1CCN([C@H](C)Cn2c(C#N)cc3c(C)c(CN4CCC5(CC4)CN(c4ncnc6ccc(CC(F)(F)F)cc46)C5)ccc32)C[C@@H]1C [Compound 25, 1-[(2R)-2-[(3S)-4-ethylsulfonyl-3-methyl-piperazin-1-yl]propyl]-4-methyl-5-[[2-[6-(2,2,2-trifluoroethyl)quinazolin-4-yl]-2,7-diazaspiro[3.5]nonan-7-yl]methyl]indole-2-carbonitrile]",CC50,MV4-11,100 to 500 nM
same,CC50 at 7 days,[1],2000 to 5000 nM
same,CC50,MOLM-13,500 to 1000 nM
"Cc1c(CN2CCC3(CC2)CN(c2ncnc4ccc(CC(F)(F)F)cc24)C3)ccc2c1cc(C#N)n2C[C@H]1CNC(=O)CO1 [Compound 101, 4-Methyl-1-{[(2R)-5-oxomorpholin-2-yl]methyl}-5-({2-[6-(2,2,2-trifluoroethyl)quinazolin-4-yl]-2,7-diazaspiro[3.5]non-7-yl}methyl)-1H-indole-2-carbonitrile]",CC50,MV4-11,100 to 500 nM
same,CC50 at 7 days,[1],2000 to 5000 nM
same,CC50,MOLM-13,1000 to 5000 nM
"Cc1c(CN2CCC3(CC2)CN(c2ncnc4ccc(CC(F)(F)F)cc24)C3)ccc2c1cc(C#N)n2CC12CC(NS(N)(=O)=O)(C1)C2 [Compound 61, 4-[7-[[2-cyano-4-methyl-1-[[3-(sulfamoylamino)-1-bicyclo[1.1.1]pentanyl]methyl]indol-5-yl]methyl]-2,7-diazaspiro[3.5]nonan-2-yl]-6-(2,2,2-trifluoroethyl)quinazoline]",CC50,MV4-11,≤ 100 nM
same,CC50 at 7 days,[1],5000 to 10000 nM
same,CC50,MOLM-13,100 to 500 nM
"Cc1c(CN2CCC3(CC2)CN(c2ncnc4ccc(CC(F)(F)F)cc24)C3)ccc2c1cc(C#N)n2CC1CCNC(=O)CO1 (stereo not drawn) [Compound 2, 4-Methyl-1-[(3-oxo-1,4-oxazepan-7-yl)methyl]-5-[[2-[6-(2,2,2-trifluoroethyl)quinazolin-4-yl]-2,7-diazaspiro[3.5]nonan-7-yl]methyl]indole-2-carbonitrile]",CC50,MV4-11,100 to 500 nM
same,CC50 at 7 days,[1],2000 to 5000 nM
same,CC50,MOLM-13,1000 to 5000 nM
"Cc1c(CN2CCC3(CC2)CN(c2ncnc4ccc(CC(F)(F)F)nc24)C3)ccc2c1cc(C#N)n2CC(C)N1CCN(S(C)(=O)=O)CC1 (stereo not drawn) [Compound 67, 4-Methyl-1-{2-[4-(methylsulfonyl)piperazin-1-yl]propyl}-5-({2-[6-(2,2,2-trifluoroethyl)pyrido[3,2-d]pyrimidin-4-yl]-2,7-diazaspiro[3.5]non-7-yl}methyl)-1H-indole-2-carbonitrile]",CC50,MV4-11,100 to 500 nM
same,CC50 at 7 days,[1],5000 to 10000 nM
same,CC50,MOLM-13,100 to 500 nM
